Values after ≈ are worked out from the molar mass of the structure shown.
Tests used:
[1] = physchem
[2] = in vitro; conditions: human, plasma
[3] = test system: HepG2; experiment: cells; conditions: Homo sapiens, HepG2, 72 h
[4] = test system: Streptococcus pneumoniae; experiment: microbe, parasite or virus in culture; conditions: ATCC 49619
[5] = in vitro; conditions: Sprague-Dawley, rat, plasma
[6] = test system: Staphylococcus aureus; experiment: microbe, parasite or virus in culture; conditions: ATCC 49951
[7] = test system: Staphylococcus aureus; experiment: microbe, parasite or virus in culture; conditions: ATCC 49951; remark: listed apart in the source
[8] = test system: Enterococcus faecalis; experiment: microbe, parasite or virus in culture; conditions: ATCC 29212
[9] = test system: Staphylococcus aureus; experiment: microbe, parasite or virus in culture; conditions: ATCC 49951; remark: listed apart in the source
[10] = test system: K562; experiment: cells; conditions: Homo sapiens, K562, 72 h
[11] = in vitro; conditions: CD1, mouse, plasma
[12] = in vivo; conditions: rat, po, 5 mg/kg
[13] = in vivo; conditions: rat, po, 5 mg/kg; remark: listed apart in the source
[14] = in vivo; conditions: rat, po, 5 mg/kg; remark: listed apart in the source
[15] = in vivo; conditions: rat, 5 mg/kg
[16] = in vivo; conditions: rat, po, 5 mg/kg; remark: listed apart in the source
[17] = in vivo; conditions: rat, iv
[18] = in vivo; conditions: rat, 5 mg/kg; remark: listed apart in the source
[19] = physchem; conditions: octanol/water, pH 7.4
[20] = in vivo; conditions: rat, iv, 1 mg/kg
[21] = in vivo; conditions: rat, po, 3 mg/kg
[22] = in vivo; conditions: rat, po, 3 mg/kg; remark: listed apart in the source
[23] = physchem; remark: listed apart in the source
[24] = in vivo; conditions: rat, po, 3.35 mg/kg
[25] = in vivo; conditions: rat, iv, 3.35 mg/kg
[26] = in vitro; conditions: human, Caco-2
[27] = physchem; conditions: buffer, pH 7
[28] = in vivo; conditions: rat, po, 3.35 mg/kg; remark: listed apart in the source
[29] = in vivo; conditions: rat, po, 3.35 mg/kg; remark: listed apart in the source
[30] = in vivo; conditions: rat, po, 3.35 mg/kg; remark: listed apart in the source
[31] = in vivo; conditions: rat, iv, 3.35 mg/kg; remark: listed apart in the source
[32] = in vitro; conditions: human, Caco-2; remark: listed apart in the source
[33] = target: hERG (KCNH2) (Homo sapiens, UniProt Q12809); experiment: in vitro; conditions: CHO-K1 cells expressing human ERG
Chain of hERG (KCNH2) (Q12809 whole entry): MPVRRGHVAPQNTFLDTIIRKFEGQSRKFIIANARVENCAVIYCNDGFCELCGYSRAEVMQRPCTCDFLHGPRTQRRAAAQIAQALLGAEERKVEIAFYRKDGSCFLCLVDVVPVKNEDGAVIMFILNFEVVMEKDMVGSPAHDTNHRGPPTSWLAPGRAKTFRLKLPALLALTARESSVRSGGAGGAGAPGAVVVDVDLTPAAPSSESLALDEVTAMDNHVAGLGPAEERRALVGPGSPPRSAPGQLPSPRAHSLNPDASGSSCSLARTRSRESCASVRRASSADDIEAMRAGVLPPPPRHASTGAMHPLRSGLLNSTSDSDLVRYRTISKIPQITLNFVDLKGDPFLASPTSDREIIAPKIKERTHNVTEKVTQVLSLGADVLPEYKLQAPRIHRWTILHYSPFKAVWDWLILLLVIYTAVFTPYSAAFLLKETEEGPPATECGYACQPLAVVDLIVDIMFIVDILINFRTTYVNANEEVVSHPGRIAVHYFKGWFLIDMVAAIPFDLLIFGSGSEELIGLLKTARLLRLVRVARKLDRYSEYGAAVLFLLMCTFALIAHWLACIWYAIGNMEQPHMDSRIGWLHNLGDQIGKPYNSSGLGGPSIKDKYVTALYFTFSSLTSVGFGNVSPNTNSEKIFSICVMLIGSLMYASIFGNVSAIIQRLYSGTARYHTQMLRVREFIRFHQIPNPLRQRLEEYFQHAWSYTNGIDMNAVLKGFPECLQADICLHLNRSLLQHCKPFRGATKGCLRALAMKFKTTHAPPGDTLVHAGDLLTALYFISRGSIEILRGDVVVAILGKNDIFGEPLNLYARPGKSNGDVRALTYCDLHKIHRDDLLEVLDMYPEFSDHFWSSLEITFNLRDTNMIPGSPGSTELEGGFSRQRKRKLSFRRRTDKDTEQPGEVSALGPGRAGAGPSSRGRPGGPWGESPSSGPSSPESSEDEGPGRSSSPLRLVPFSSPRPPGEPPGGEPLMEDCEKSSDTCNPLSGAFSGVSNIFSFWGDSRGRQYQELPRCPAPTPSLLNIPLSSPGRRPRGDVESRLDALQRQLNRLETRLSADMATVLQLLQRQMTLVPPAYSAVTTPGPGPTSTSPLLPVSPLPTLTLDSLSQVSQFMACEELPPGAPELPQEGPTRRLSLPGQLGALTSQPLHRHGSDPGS

[34] = in vivo; conditions: mouse, po, 5 mg/kg
[35] = in vivo; conditions: mouse, 5 mg/kg
[36] = in vivo; conditions: dog, po, 1 mg/kg
[37] = in vivo; conditions: mouse, po, 5 mg/kg; remark: listed apart in the source
[38] = in vivo; conditions: dog, po, 1 mg/kg; remark: listed apart in the source
[39] = in vivo; conditions: mouse, po, 5 mg/kg; remark: listed apart in the source
[40] = in vivo; conditions: dog, 1 mg/kg
[41] = in vivo; conditions: dog, po, 1 mg/kg; remark: listed apart in the source
[42] = in vivo; conditions: mouse, iv
[43] = in vivo; conditions: dog, iv, 0.125 mg/kg
[44] = in vivo; conditions: mouse, po, 5 mg/kg; remark: listed apart in the source

| SMILES | pKa [1] | fraction unbound at 4 h, 10 µM [2] | EC50 [3] | MIC [4] | fraction unbound at 4 h, 10 µM [5] | MIC [6] | MIC [7] | MIC [8] | MIC [9] | EC50 [10] | fraction unbound at 4 h, 10 µM [11] | Tmax at 24 h [12] | Cmax at 24 h [13] | bioavailability at 24 h [14] | clearance at 24 h [15] | AUC(0-inf) at 24 h [16] | half-life at 24 h [17] | Vd at 24 h [18] | logD [19] | efflux ratio [26] | other results |
| --- | --- | --- | --- | --- | --- | --- | --- | --- | --- | --- | --- | --- | --- | --- | --- | --- | --- | --- | --- | --- | --- |
| Cc1c(N2CC[C@@H]([C@H](C)N)C2)c(F)cc2cc(C(=O)O)c(=O)n(C3CC3)c12 | 5.2 | 0.54 | > 100 µM | 0.015 µg/mL (≈ 0.0402 µM) | 0.54 | 2 µg/mL (≈ 5.36 µM) | 0.125 µg/mL (≈ 0.335 µM) | 0.25 µg/mL (≈ 0.669 µM) | 2 µg/mL (≈ 5.36 µM) | > 100 µM | 0.66 |  |  |  |  |  |  |  |  |  |  |
| Cc1c(N2CCC(C3(N)CC3)C2)c(F)cc2c(CC(=O)N(C)C)cc(=O)n(C3CC3)c12 (stereo not drawn) | 8.5 | 0.57 |  |  | 0.33 | 1 µg/mL (≈ 2.34 µM) | 2 µg/mL (≈ 4.69 µM) |  |  |  | 0.58 | 1.17 h | 78 nM | 32.5% | 49.3 mL/min/kg | 0.26 µM·h | 1.61 h | 3.3 L/kg | 0.27 |  |  |
| C[C@H]1COc2c(N3CC4CC(F)(F)C[C@@H](N)[C@H]4C3)c(F)cc3cc(C(=O)O)c(=O)n1c23 (single isomer, unassigned) | 5.1 | 0.18 |  |  | 0.42 | 0.06 µg/mL (≈ 0.137 µM) | ≤ 0.03 µg/mL |  |  |  | 0.41 |  |  |  |  |  |  |  | -0.26 |  | half-life at 24 h [20]: 3.46 h; Tmax at 24 h [21]: 2 h; Cmax at 24 h [22]: 1700 nM |
| Cc1c(N2CCC(C3(N)CC3)C2)c(F)cc2c(Cc3n[nH]c(=O)o3)cc(=O)n(C3CC3)c12 (stereo not drawn) |  | 0.27 |  |  | 0.15 | 0.5 µg/mL (≈ 1.14 µM) | 1 µg/mL (≈ 2.28 µM) |  |  |  | 0.4 | 0.5 h | 51 nM | 14.9% |  | 0.12 µM·h | 0.99 h | 1.3 L/kg | 0.24 |  | pKa [23]: 7.2 |
| Cc1c(N2CC[C@@H](C3(N)CC3)C2)c(F)cc2cc(C(=O)O)c(=O)n(C3CC3)c12 | 5.1 | 0.21 | > 100 µM | ≤ 0.03 µg/mL | 0.3 | 1 µg/mL (≈ 2.59 µM) | 0.06 µg/mL (≈ 0.156 µM) | 0.25 µg/mL (≈ 0.649 µM) | 0.5 µg/mL (≈ 1.3 µM) | > 100 µM | 0.49 |  |  |  |  |  |  |  | -0.34 | 0.91 | Cmax at 24 h [24]: 1710 nM; half-life at 24 h [25]: 2.56 h; solubility at 24 h [27]: 623 µg/mL (≈ 1620 µM); Tmax at 24 h [28]: 0.67 h; bioavailability at 24 h [29]: 70%; AUC(0-inf) at 24 h [30]: 5.85 µM·h; Vd at 24 h [31]: 0.75 L/kg; Papp A→B at 2 h, 10 µM [32]: 23.1 ×10⁻⁶ cm/s |
| Cc1c(N2CC[C@@H]([C@H](C)N)C2)c(F)cc2ccc(=O)n(C3CC3)c12 | 9.6 |  | 93 µM | ≤ 0.03 µg/mL |  | 0.06 µg/mL (≈ 0.182 µM) | ≤ 0.06 µg/mL | 0.125 µg/mL (≈ 0.379 µM) | ≤ 0.03 µg/mL |  |  |  |  |  |  |  |  |  |  |  |  |
| C[C@H](N)[C@@H]1CCN(c2c(F)cc3cc(C(=O)O)c(=O)n4c3c2OC[C@@H]4C)C1 | 5 | 0.8 | > 100 µM | ≤ 0.03 µg/mL | 0.72 | 2 µg/mL (≈ 5.33 µM) | 0.125 µg/mL (≈ 0.333 µM) | 0.25 µg/mL (≈ 0.666 µM) | 1 µg/mL (≈ 2.66 µM) | > 100 µM | 0.94 | 0.83 h | 540 nM | 66% | 18.5 mL/min/kg | 1.6 µM·h | 3.02 h | 1.75 L/kg | -1.1 | 1.7 | inhibition at 300 µM [33]: 8.3%; solubility at 24 h [27]: 675 µg/mL (≈ 1800 µM); Papp A→B at 2 h, 10 µM [32]: 2.7 ×10⁻⁶ cm/s |
| C[C@H]1COc2c(N3CC[C@@H](C4(N)CC4)C3)c(F)cc3cc(C(=O)O)c(=O)n1c23 | 4.9 | 0.76 | > 100 µM | 0.06 µg/mL (≈ 0.155 µM) | 0.63 | 2 µg/mL (≈ 5.16 µM) | 0.25 µg/mL (≈ 0.645 µM) | 0.25 µg/mL (≈ 0.645 µM) | 0.5 µg/mL (≈ 1.29 µM) | > 100 µM | 0.87 | 2.7 h | 1350 nM | 65% | 3.26 mL/min/kg | 8.68 µM·h | 4.64 h | 1.09 L/kg | -0.9 | 0.9 | Tmax at 24 h [34]: 2 h; Vd at 24 h [35]: 1.88 L/kg; Cmax at 24 h [36]: 1350 nM; bioavailability at 24 h [37]: 92%; Tmax at 24 h [38]: 4 h; inhibition at 300 µM [33]: 27%; AUC(0-inf) at 24 h [39]: 4.3 µM·h; Vd at 24 h [40]: 1.91 L/kg; AUC(0-inf) at 24 h [41]: 19 µM·h; solubility at 24 h [27]: 1270 µg/mL (≈ 3270 µM); half-life at 24 h [42]: 3.36 h; half-life at 24 h [43]: 9.95 h; Papp A→B at 2 h, 10 µM [32]: 20 ×10⁻⁶ cm/s; Cmax at 24 h [44]: 490 nM |

From ChEMBL document CHEMBL4808184, “Discovery and Optimization of DNA Gyrase and Topoisomerase IV Inhibitors with Potent Activity against Fluoroquinolone-Resistant Gram-Positive Bacteria” (J Med Chem, 2021)
